Data taken from patent US8546529B2, “Injectable bone regeneration gel containing bone formation enhancing peptide” (Nano Intelligent Biomedical Engineering Corporation Co., …, priority 2007, dated 2013).

System: Mesodermal stem cells C2C12
Test: Calcification of cells by bone regeneration materials (calcein fluorescence)
Assay type: cell-based
Settings: C2C12 cultured for 14 days in medium for hard tissue formation containing calcein; compared with material containing no peptide
Method: Mesodermal stem cells C2C12 (America Type Culture Collection, CRL-1772) were cultured for 14 days, while adding the injectable bone regeneration materials prepared in Example 1 to a medium for hard tissue formation, containing calcein (fluorescent substance for calcium). The cultured osteoblasts were fixed with 2% glutaraldehyde solution. The fixed cells were treated with 1% triton X-100, and then nuclei were strained with DAPI (blue) and actins were stained with Rhodamine phalloidin (Molecular Probe, red), thus staning the cultured cells.

“YGLRSKSKKFRRPDIQYPDAT (listed as Homo sapiens) [SEQ ID NO: 6]” was tested, and the “calcification (calcium fluorescence deposited on extracellular matrixes)” value was “promotes calcification of cells”.
